From US9289428B2, “Conveniently injectable or implantable sustained-release antioxidant formulations for therapies of ocular maladies or cancer” (RAMSCOR, INC., priority 2011, dated 2016)
Where two headings read alike, the source gives them in different places.

Key:
[1] = Concentration of active agent in the rabbit eye after injection of a sustained release formulation into the vitreous; format: in vivo
Experimental: A 10 μL unit dose of either formulation 1 or formulation 2 was injected into the eyes of two rabbits, and the concentration of timolol or dexamethasone (dex) remaining in the eye tested at 7 days and 14 days thereafter. A 50 μL unit dose was injected into the vitreous of two rabbit's eyes, and the concentrations of active agent detected 7 days thereafter and averaged. Timalol was detected at 8.93 μg/mL; Dex was detected at 2.82 μg/mL.
A formulation consisting of 20% timolol maleate:10% Reservatrol:70% (1:1 ATEC:EA) was prepared by mixing. A unit dose of 50 μL was injected into the vitreous of two rabbit eyes, and Reservatrol was detected at 0.64 μg/mL (average) 7 days thereafter.

B16 melanoma tumors = test: Mouse B16 melanoma tumor model, single intratumoral implantation of sustained release antioxidant formulation; format: in vivo, C57 mouse
Excerpt: A mouse model was used to study the in vivo effect of sustained release antioxidant formulations on melanoma tumors. Mouse B16 melanoma Cell lines were obtained from NCI-Frederick, Md. C57 Mice were obtained from Simonsen Laboratories in Gilroy, Calif. Anesthesia was Ketamine/Xylazine/Acepromacine 1:1:0.03 mixture. […] cell suspension and 1×1 mm tumor pieces were preserved in 90% Fetal Bovine Serum and 10% DMSO in liquid nitrogen. Tumor was also maintained by in vivo serial subcutaneous passage.
Mice of either sex, weighing 16-18 grams, were anesthetized with the ketamine mixture. Subcutaneous implantation of the B16 suspension (100 ul of 2×10^6/ml) or solid tumor piece were performed in the back or nape of the mouse. Tumors were treated when tumor reached the average size of 6×6 mm in diameter and weighed approximately 0.6-0.8 grams in 7-10 days.
Treatment consisted of a single intratumoral implantation of semi-solid drug formulations. Each formulation consisted of 2 mg of active pharmaceutical ingredient (API): either Resveratrol, Astaxanthin, or Melatonin; in either tocopherol acetate (EA), benzyl benzoate (BB), or acetyltriethyl citrate (ATEC) excipients (all Sigma Chemical). The ratio of API and excipient was 80:20 by weight.

## C[C@@H]1C[C@H]2[C@@H]3CCC4=CC(=O)C=C[C@]4(C)[C@@]3(F)[C@@H](O)C[C@]2(C)[C@@]1(O)C(=O)CO [Dex, dexamethasone]
[1]; rabbit, in vivo
  concentration at 7 days: 2820 ng/mL

## Oc1ccc(/C=C/c2cc(O)cc(O)c2)cc1 [Reservatrol, 3,5,4′-trihydroxy-trans-stilbene]
[1]; other: intravitreal injection, 50 μL unit dose of 20% timolol maleate:10% Reservatrol:70% (1:1 ATEC:EA) injected into vitreous of two rabbit eyes, 7 days thereafter, average, read-out: concentration of Reservatrol detected in the vitreous
  concentration at 7 days: 640 ng/mL

## CC(C)(C)NC[C@H](O)COc1nsnc1N1CCOCC1 [Timalol, timolol]
[1]; rabbit, in vivo
  concentration at 7 days: 8930 ng/mL

## CC1=C(/C=C/C(C)=C/C=C/C(C)=C/C=C/C=C(C)/C=C/C=C(C)/C=C/C2=C(C)C(=O)[C@@H](O)CC2(C)C)C(C)(C)C[C@H](O)C1=O [astaxanthin]
B16 melanoma tumors; after the single treatment
  time to complete clinical resolution of the tumor: 5-7 weeks
  time to peeling of overlying skin surface and beginning ulceration: about one
  tumor growth after treatment: stopped growing immediately
B16 melanoma tumors; until termination of the experiment on day 90
  condition and body weight of the animals: remained active and continued to gain weight
